pEC50: −log10 of the molar value. Counter-ions that a name gives are not always drawn.
Assays:
[1] = target: human activated kallikrein enzyme (Homo sapiens, UniProt P03952); assay: Inhibition of activated plasma kallikrein, fluorogenic peptide substrate (PFR-AMC) assay, 500 pM enzyme format; assay type: biochemical; conditions: 500 pM activated kallikrein, 300 uM PFR-AMC, 30 min preincubation, 10 min reaction, room temperature; read-out: Primary Dose Response Assay: Average EC50
In short: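 500 pM enzyme preincubated 30 min at room temperature with inhibitor in 20 mM Tris pH 7.5, 150 mM NaCl, 1 mM EDTA, 0.1% PEG-400, 0.1% Triton X-100. Reaction started with 300 uM PFR-AMC and run 10 min at room temperature. Fluorescence read at 380 nm excitation/460 nm emission.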

[2] = target: T1, plasma kallikrein (Homo sapiens, UniProt P03952); assay: Neat human plasma assay: contact pathway-activated (FXIIa) plasma, PFR-AMC substrate; assay type: biochemical; conditions: citrated human plasma (78% final), 10 nM human FXIIa, 100 μM PFR-AMC, room temperature
T1 construct: from tissue; host or cells: sodium citrate collected human plasma (78% final)
T1 sequence (P03952 391-638 limits assumed): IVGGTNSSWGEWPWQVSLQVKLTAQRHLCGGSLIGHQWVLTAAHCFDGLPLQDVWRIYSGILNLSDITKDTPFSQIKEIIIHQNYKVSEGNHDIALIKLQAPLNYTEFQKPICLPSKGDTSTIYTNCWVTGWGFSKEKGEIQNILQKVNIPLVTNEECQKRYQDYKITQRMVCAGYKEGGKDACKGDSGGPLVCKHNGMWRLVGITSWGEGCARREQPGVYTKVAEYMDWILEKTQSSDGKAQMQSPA
T1 sequence (P03952 20-390 partner limits assumed): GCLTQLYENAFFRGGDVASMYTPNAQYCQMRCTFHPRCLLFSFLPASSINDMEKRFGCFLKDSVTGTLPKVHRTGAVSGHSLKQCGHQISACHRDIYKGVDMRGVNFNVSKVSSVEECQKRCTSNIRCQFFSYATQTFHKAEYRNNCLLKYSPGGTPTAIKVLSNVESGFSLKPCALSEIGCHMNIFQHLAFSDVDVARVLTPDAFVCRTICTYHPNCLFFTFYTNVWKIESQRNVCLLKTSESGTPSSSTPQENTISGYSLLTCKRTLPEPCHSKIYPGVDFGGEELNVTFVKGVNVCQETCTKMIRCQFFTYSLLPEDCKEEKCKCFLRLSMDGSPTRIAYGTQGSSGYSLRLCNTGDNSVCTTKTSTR
In short: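 Compounds spiked into citrated human or rat plasma (78% final), or plasma taken from orally or IV dosed rats, activated with 10 nM human FXIIa; 100 μM PFR-AMC cleavage read at 360/480 nm for 5 min, room temperature. Rates vs concentration fit to 4-parameter IC50/IC90 equation.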

human activated kallikrein enzyme, sequence (P03952 391-638 limits assumed): as the sequence (P03952 391-638 limits assumed) above
human activated kallikrein enzyme, sequence (P03952 20-390 partner limits assumed): as the sequence (P03952 20-390 partner limits assumed) above

SMILES	pEC50 [1]	IC90 [2] [nM]
Oc1cc([C@H]2C[C@@H]2c2cccc(Cl)c2)nc2cc(NCc3cn4cc(C5CC5)ccc4n3)ccc12 [Example 51, 2-((1S,2S)-2-(3-chlorophenyl)cyclopropyl)-7-(((6-cyclopropylimidazo[1,2-a]pyridin-2-yl)methyl)amino)quinolin-4-ol]	8.00 to 9.00	1500 to 10000
COc1cc([C@H]2C[C@@H]2c2nccc(C)n2)nc2cc(NCc3cn4cc(C5CC5)cc(N5CC(=O)N(C)C5=O)c4n3)ccc12 (racemic) [Example 21, rac-1-(6-cyclopropyl-2-(((4-methoxy-2-((1S*,2S*)-2-(4-methylpyrimidin-2-yl)cyclopropyl)quinolin-7-yl)amino)methyl)imidazo[1,2-a]pyridin-8-yl)-3-methylimidazolidine-2,4-dione]	≥ 9.00	1500 to 10000
Cc1ccnc([C@H]2C[C@@H]2c2cc(N3CCC3)c3ccc(NCc4cn5cc(C6CC6)cc(N6CC(=O)N(C)C6=O)c5n4)cc3n2)n1 [Example 30, 1-(2-(((4-(azetidin-1-yl)-2-((1S,2S)-2-(4-methylpyrimidin-2-yl)cyclopropyl)quinolin-7-yl)amino)methyl)-6-cyclopropylimidazo[1,2-a]pyridin-8-yl)-3-methylimidazolidine-2,4-dione]	≥ 9.00	≤ 400
Cc1ccnc([C@H]2C[C@@H]2c2cc(N3CCOCC3)c3ccc(NCc4cn5cc(C6CC6)cc(N6CC(=O)N(C)C6=O)c5n4)cc3n2)n1 (racemic) [Example 40, rac-1-(6-cyclopropyl-2-((1S*,2S)-2-(4-methylpyrimidin-2-yl)cyclopropyl)-4-morpholinoquinolin-7-yl)amino)methyl)imidazo[1,2-a]pyridin-8-yl)-3-methylimidazolidine-2,4-dione]	≥ 9.00	≤ 400
Cc1ccnc([C@H]2C[C@@H]2c2cc(-n3ccnc3)c3ccc(NCc4cn5cc(C6CC6)cc(N6CC(=O)N(C)C6=O)c5n4)cc3n2)n1 (racemic) [Example 25, rac-1-(2-(((4-(1H-imidazol-1-yl)-2-((1S*,2S*)-2-(4-methylpyrimidin-2-yl)cyclopropyl)quinolin-7-yl)amino)methyl)-6-cyclopropylimidazo[1,2-a]pyridin-8-yl)-3-methylimidazolidine-2,4-dione]	≥ 9.00	1500 to 10000
CN1C(=O)CN(c2cc(C3CC3)cn3cc(CNc4ccc5c(=O)[nH]c([C@H]6C[C@@H]6c6cccc(Cl)c6)nc5c4)nc23)C1=O [Example 6, 1-(2-(((2-((1S,2S)-2-(3-chlorophenyl)cyclopropyl)-4-oxo-3,4-dihydroquinazolin-7-yl)amino)methyl)-6-cyclopropylimidazo[1,2-a]pyridin-8-yl)-3-methylimidazolidine-2,4-dione]	8.00 to 9.00	1500 to 10000
CNc1cc([C@H]2C[C@@H]2c2nccc(C)n2)nc2cc(NCc3cn4cc(C5CC5)cc(N5CC(=O)N(C)C5=O)c4n3)ccc12 (racemic) [Example 32, rac-1-(6-cyclopropyl-2-(((4-(methylamino)-2-((1S*,2S*)-2-(4-methylpyrimidin-2-yl)cyclopropyl)quinolin-7-yl)amino)methyl)imidazo[1,2-a]pyridin-8-yl)-3-methylimidazolidine-2,4-dione]	≥ 9.00	≤ 400
Cc1ccnc([C@H]2C[C@@H]2c2cc(N(C)C)c3ccc(NCc4cn5cc(C6CC6)cc(N6CC(=O)N(C)C6=O)c5n4)cc3n2)n1 (racemic) [Example 29, rac-1-(6-cyclopropyl-2-(((4-(dimethylamino)-2-((1S*,2S*)-2-(4-methylpyrimidin-2-yl)cyclopropyl)quinolin-7-yl)amino)methyl)imidazo[1,2-a]pyridin-8-yl)-3-methylimidazolidine-2,4-dione]	≥ 9.00	≤ 400
Cc1ccnc([C@H]2C[C@@H]2C2=CS(=O)(=O)c3ccc(NCc4cn5cc(C6CC6)cc(N6CC(=O)N(C)C6=O)c5n4)cc3N2)n1 (racemic) [Example 61, rac-1-(6-cyclopropyl-2-(((3-((1S*,2S*)-2-(4-methylpyrimidin-2-yl)cyclopropyl)-1,1-dioxido-4H-benzo[b][1,4]thiazin-6-yl)amino)methyl)imidazo[1,2-a]pyridin-8-yl)-3-methylimidazolidine-2,4-dione]	≥ 9.00	400 to 1500
Cc1ccnc([C@H]2C[C@@H]2c2ccc3cnc(NCc4cn5cc(C6CC6)cc(N6CC(=O)N(C)C6=O)c5n4)cc3n2)n1 (racemic) [Example 15, rac-1-(6-cyclopropyl-2-(((2-((1S*,2S*)-2-(4-methylpyrimidin-2-yl)cyclopropyl)-1,6-naphthyridin-7-yl)amino)methyl)imidazo[1,2-a]pyridin-8-yl)-3-methylimidazolidine-2,4-dione formic acid salt]	8.00 to 9.00	1500 to 10000
Cc1ccnc(C2CC2c2cc(=O)c3ccc(NCc4cn5cc(C6CC6)cc(N6CC(=O)N(C)C6=O)c5n4)cc3[nH]2)n1 (single isomer, unassigned) [Example 13, 1-(6-cyclopropyl-2-(((2-(2-(4-methylpyrimidin-2-yl)cyclopropyl)-4-oxo-1,4-dihydroquinolin-7-yl)amino)methyl)imidazo[1,2-a]pyridin-8-yl)-3-methylimidazolidine-2,4-dione]	8.00 to 9.00	≤ 400

The next lines start with the values.

pEC50 [1]	IC90 [2] [nM]	SMILES
≥ 9.00	400 to 1500	Cc1ccnc([C@H]2C[C@@H]2c2cc(C(C)(C)O)c3ccc(NCc4cn5cc(C6CC6)cc(N6CC(=O)N(C)C6=O)c5n4)cc3n2)n1 (racemic) [Example 95, rac-1-(6-cyclopropyl-2-(((4-(2-hydroxypropan-2-yl)-2-((1S*,2S*)-2-(4-methylpyrimidin-2-yl)cyclopropyl)quinolin-7-yl)amino)methyl)imidazo[1,2-a]pyridin-8-yl)-3-methylimidazolidine-2,4-dione]
≥ 9.00	1500 to 10000	Cc1ccnc([C@H]2C[C@@H]2c2ccc3ccc(NCc4cn5cc(C6CC6)cc(N6CC(=O)N(C7COC7)C6=O)c5n4)cc3n2)n1 (racemic) [Example 78, rac-1-(6-cyclopropyl-2-(((2-((1S*,2S*)-2-(4-methylpyrimidin-2-yl)cyclopropyl)quinolin-7-yl)amino)methyl)imidazo[1,2-a]pyridin-8-yl)-3-(oxetan-3-yl)imidazolidine-2,4-dione]
≥ 9.00	≤ 400	Cc1ccnc([C@H]2C[C@@H]2c2cc(N3CC4(COC4)C3)c3ccc(N[C@H](C)c4cn5cc(C6CC6)cc(N6CC(=O)N(C)C6=O)c5n4)cc3n2)n1 [Example 101, 1-(6-cyclopropyl-2-((R)-1-((2-((1S,2S)-2-(4-methylpyrimidin-2-yl)cyclopropyl)-4-(2-oxa-6-azaspiro[3.3]heptan-6-yl)quinolin-7-yl)amino)ethyl)imidazo[1,2-a]pyridin-8-yl)-3-methylimidazolidine-2,4-dione]
≥ 9.00	1500 to 10000	COc1cc2ccc([C@H]3C[C@@H]3c3nccc(C)n3)nc2cc1NCc1cn2cc(C3CC3)cc(N3CC(=O)N(C)C3=O)c2n1 (racemic) [Example 84, rac-1-(6-cyclopropyl-2-(((6-methoxy-2-((1S*,2S*)-2-(4-methylpyrimidin-2-yl)cyclopropyl)quinolin-7-yl)amino)methyl)imidazo[1,2-a]pyridin-8-yl)-3-methylimidazolidine-2,4-dione]
8.00 to 9.00	400 to 1500	COc1cc([C@H]2C[C@@H]2c2nccc(C)n2)nc2cc(N3C[C@@H](O)C[C@@H]3c3cn4cc(C5CC5)cc(N5CC(=O)N(C)C5=O)c4n3)ccc12 (relative stereo) [Example 67, rac-1-(6-cyclopropyl-2-((2R,4S)-4-hydroxy-1-(4-methoxy-2-((1S*,2S*)-2-(4-methylpyrimidin-2-yl)cyclopropyl)quinolin-7-yl)pyrrolidin-2-yl)imidazo[1,2-a]pyridin-8-yl)-3-methylimidazolidine-2,4-dione]
≥ 9.00	≤ 400	Cc1ccnc([C@H]2C[C@@H]2c2cc(N(C)CC(C)(C)O)c3ccc(NCc4cn5cc(C6CC6)cc(N6CC(=O)N(C)C6=O)c5n4)cc3n2)n1 [Example 100, 1-(6-cyclopropyl-2-(((4-((2-hydroxy-2-methylpropyl)(methyl)amino)-2-((1S,2S)-2-(4-methylpyrimidin-2-yl)cyclopropyl)quinolin-7-yl)amino)methyl)imidazo[1,2-a]pyridin-8-yl)-3-methylimidazolidine-2,4-dione]
≥ 9.00	≤ 400	Cc1ccnc([C@H]2C[C@@H]2C2=NS(=O)(=O)c3ccc(NCc4cn5cc(C6CC6)cc(F)c5n4)cc3N2)n1 [Example 105, 6-(((6-cyclopropyl-8-fluoroimidazo[1,2-a]pyridin-2-yl)methyl)amino)-3-((1S,2S)-2-(4-methylpyrimidin-2-yl)cyclopropyl)-4H-benzo[e][1,2,4]thiadiazine 1,1-dioxide]
≥ 9.00	400 to 1500	COCc1cc(NCc2cn3cc(C4CC4)cc(N4CC(=O)N(C)C4=O)c3n2)cc2nc([C@H]3C[C@@H]3c3nccc(C)n3)ccc12 (racemic) [Example 75, rac-1-(6-cyclopropyl-2-(((5-(methoxymethyl)-2-((1S*,2S*)-2-(4-methylpyrimidin-2-yl)cyclopropyl)quinolin-7-yl)amino)methyl)imidazo[1,2-a]pyridin-8-yl)-3-methylimidazolidine-2,4-dione]

Reference: patent US20240199613A1 (TAKEDA PHARMACEUTICAL COMPANY LIMITED, priority 2021, published 2024)
